Assay results taken from US9889180B2, “Method of treating cancer” (Agency for Science, Technology and Research, priority 2012, dated 2018).

Columns and labels:
DU145 xenograft tumor = DU145 xenograft tumor growth in male athymic nude mice; assay type: in vivo; settings: IFN-γ 1×10^7 IU/kg i.p. daily, DZNep 1 mg/kg s.c. every alternating day, 38 days
Protocol: For in vivo evaluation of DZNep and IFN-γ treatment, the experiments were conducted in compliance with animal protocol approved by the ASTAR-Biopolis Institutional Animal Care and Use Committee (IACUC) of Singapore. DU145 cells were subcutaneously injected into 6-8 week male nude mice at 5×10^6 cells, followed by treatment with vehicle, IFN-γ (1×10^7 IU/kg) alone, DZNep (1 mg/kg) alone or combined DZNep (1 mg/kg) with IFN-γ (1×10^7IU/kg). IFN-γ was administered by intraperitoneal injection daily and DZNep by subcutaneous injection on every alternating day over a duration of 38 days after average tumor size reached around 150 mm^3. Tumors were measured by vernier calliper at least twice per week and tumors volume was calculated with formula: V=W*W*L/2. Each xenograft treatment arm comprised of 5-8 mice. Differences among groups and treatments were determined by ANOVA followed by t tests. (***p<0.001, n.s=not significant) Error bars represent means±s.e.m

IFNGR1 promoter = test: ChIP analysis of EZH2 and H3K27me3 enrichments at IFNGR1 in DU145 cells; assay type: cell-based, human; settings: DZNep (2.5 μM), 3 days
Protocol: ChIP assays were performed as described previously. […] The immunoprecipitated DNA was quantified by quantitative real-time PCR using KAPA SyBr Fast qPCR kit (KAPA biosystems) with the specific ChIP primers as listed in the Table 4. Quantification of binding to the promoter was defined as the percentage of the whole cell lysate input DNA. The fold enrichment was derived by normalizing the specific antibody enriched against the IgG-enriched chromatin. CNR1 serves a positive control and Actin is a negative control. Significance of target genes was assessed relative to Actin level.

RWPE1-PI3K cells = test: FACS cell death analysis in RWPE1-PI3K cells; assay type: cell-based, human; settings: DZNep (2.5 μM) for 3 days with increasing doses of IFN-γ
Protocol: For the assessment of cell death, cells were harvested in 70% ethanol. Fixed cells were stained with Propidium Iodide (P.I) (50 μg/mL). The stained cells were analyzed for DNA content by FACS in a FACSCalibur (Becton Dickinson Instrument). % of cell death was defined as the sub-G1 population quantified using the CellQuest software (Becton Dickinson). The percentage of dead cells or sub-G1 cells was calculated by comparing the results of each experiment to the results from DMSO-treated cells. Each assay was repeated a minimum of three times, with results reported as means+s.e.m.

[1] = test system: DU145-derived prostatospheres; test: Prostatosphere formation assay, DU145; assay type: cell-based, human; settings: EZH2 knockdown in combination with IFN-γ, 7 days
Protocol: Prostatospheres were generated according to protocols known to the skilled person in the art. In order to obtain prostatospheres from either DU145 or LNCaP, exponentially growing cultures were dissociated to single cells by standard trypsinization, washed three times with PBS and plated at a density of 1×10^4 cells/well in 6-well ultra-low attachment plates (Corning) containing 3 ml of SCM medium (DMEM:F12 plus 10 ng/mL bFGF, 20 ng/mL EGF, […], and 0.4% BSA) supplemented with 1% KO serum replacement (Invitrogen/Gibco). The cells were treated with DZNep or IFN-γ as indicated the next day and cultured for 7 days. 7 days old prostatospheres formed were stained with 4 μg/ml p-Iodonitrotetrazolium Violet (INT) overnight and were counted and analyzed using a GelCount™ automatic plate scanner (Oxford Optronics) and GelCount Version 0.025.1 software (Oxford Optronics). Plates were scanned at 1200 dpi and the colony detection algorithm was optimized for each cell type and culture time.

DU145 cells = test: Cell proliferation assay (CellTiter-Glo) in DU145 cells; assay type: cell-based, human; settings: siRNA knockdown combined with IFN-γ treatment
Protocol: (§1) The optimal cell seeding was determined empirically for all cell lines by examining the growth of a wide range of seeding densities in a 96-well format to identify conditions that permitted proliferation for 6 days. Cells were then plated at the optimal seeding density 24 h before siRNA or drug treatment in triplicate. Plates were incubated for 6 days at 37° C. in 5% CO2. Cells were then lysed with CellTiter-Glo (CTG) (Promega) and chemiluminescent signal was detected with a microplate reader (TECAN). In addition, an untreated plate of cells was harvested at the time of drug or siRNA addition (T0) to quantify the starting number of cells. CTG values obtained after the 6 day treatment were expressed as percentages of the T0 value and plotted against time of treatment. Cells received 1-5 μM of DZNep, 25 ng/mL of IFN-γ and 0.1-2.5 μM of GSK343 unless stated otherwise for 72-96 h.

[2] = test system: PC3-derived prostatospheres; test: Prostatosphere formation assay, PC3; assay type: cell-based, human; settings: EZH2 knockdown in combination with IFN-γ, 7 days
LNCaP cells = test: Cell proliferation assay (CellTiter-Glo) in LNCaP cells; assay type: cell-based, human; settings: siRNA knockdown combined with IFN-γ treatment
Protocol: as §1

[3] = test system: IFN responsive genes (MX1, IRF1, IFI16); test: qRT-PCR of IFN responsive genes in PC3 cells; assay type: cell-based, human; settings: in response to IFN-γ stimulation
Protocol: Target-specific siRNA and non-targeting control siRNA were purchased from 1st Base Singapore and Integrated DNA technologies (IDT) with the following target sequences respectively: EZH2 siRNA: 5′-GACUCUGAAUGCAGUUGCU-3′ (SEQ ID NO: 1); MYC siRNA: 5′-[…]-3′ (SEQ ID NO:2). All siRNA were designed by 1st Base Singapore and IDT respectively. For transfection, 30 nM siRNAs were used to transfect cells. 48 h after transfection cell pellets were collected and subjected indicated assays.
Total RNA was isolated by using Trizol (Invitrogen) and purified with the RNeasy Mini Kit (Qiagen). The microarray hybridization was performed using the Illumina Gene Expression Sentrix BeadChip HumanRef-8_V3, and data analysis was performed by GeneSpring software from Agilent Technologies as described previously. The analyzed gene sets by GeneSpring were next subjected to Ingenuity Pathway Analysis (IPA) for gene ontology (GO) analysis. Reverse transcription and quantitative PCR assays were performed using High Capacity cDNA Archive kit and KAPA SyBr Fast qPCR kit (KAPA biosystems). For quantification of mRNA levels, 18S level was used as an internal control. All reactions were analyzed in an Applied Biosystems PRISM 7500 Fast Real-Time PCR system in 96-well plate format.

Row | Compound | xenograft tumor growth (DU145 xenograft tumor) | EZH2 and H3K27me3 enrichments at the IFNGR1 gene promoter (IFNGR1 promoter) | induction of apoptosis / cell death (RWPE1-PI3K cells) | tumorsphere formation after knockdown [1] | cell growth after knockdown (DU145 cells) | tumorsphere formation after knockdown [2] | cell growth after knockdown (LNCaP cells) | activation of IFN genes after knockdown [3]
1 | Cl.Nc1nccc2c1ncn2[C@@H]1C=C(CO)[C@@H](O)[C@H]1O [DZNep, (−)-1-[(1R,4R,5S)-3-(Hydroxymethyl)-4,5-dihydroxy-2-cyclopenten-1-yl]4-aminoimidazo[4,5-c]pyridine hydrochloride] | slowed down the tumor growth | reduced both EZH2 and H3K27me3 enrichments | but not RWPE1-PI3K cells |  |  |  |  | 
2 | EZH2 knockdown: EZH2 siRNA: 5′-GACUCUGAAUGCAGUUGCU-3′ (SEQ ID NO: 1) (other strand not given here) |  |  |  | efficiently inhibited the tumorsphere formation | remarkable synergy in cell growth regression | efficiently inhibited the tumorsphere formation | no such an effect was seen | robust activation of IFN genes
